# Entries after “also recorded” stand apart in the source; their conditions may differ.
# Legend:
# [1] = target: T1, CDK2 (Homo sapiens, UniProt P24941); assay: In vitro CDK2 enzyme inhibition assay (BPS Bioscience kit, chemiluminescence); format: biochemical
# T1 construct: purchased BPS Bioscience
# Procedure: (§1) The CDK in vitro inhibitory activity of 9a–h and 14a–h toward CDK2 and CDK9 was performed using CDK Assay Kit (BPS Bioscience, USA) at different dilutions of 30, 10, 3, 1, 0.3, 0.1, 0.03, and 0.01 µM, measuring the chemiluminescence using BioTek™ Synergy2 Microplate Reader (BioTek, Santa Clara, CA, USA).
# [2] = tested on: Hela cells; assay: Cell cycle analysis (PI flow cytometry), Hela; format: cell-based
# Procedure: (§2) Cell cycle arrest of cervical cancer cells Hela, breast cancer cells MCF7, and colon cancer cells HCT-116 were assessed for compounds 9a and 14g at their IC50.
# [3] = tested on: Hela cancer cell line; assay: MTT cytotoxicity assay, cervical cancer Hela; format: cell-based; settings: Homo sapiens, mean ± SD of three experiments
# Procedure: (§3) The cytotoxicity of compounds 9a–h and 14a–h against three cell lines, namely, cervical cancer Hela, breast cancer MCF7, and colon HCT-116, compared with doxorubicin as a reference compound was performed using MTT assay. The cytotoxic concentration (IC50 in µM) is illustrated in Table 1.
# (§4) Standard MTT colorimetric assay was applied to test the IC50 of compounds 9a–h and 14a–h against three cell lines, namely, cervical cancer Hela, breast cancer MCF7, and colon HCT-116, compared with doxorubicin as a reference compound with the typical reported methodology of MTT colorimetric assay.
# [4] = tested on: Hela cells; assay: Annexin V/PI apoptosis assay, Hela; format: cell-based; settings: IC50 concentration, 24 h
# Procedure: An apoptotic assay using Annexin V/PI analysis for compounds 9a and 14g is evaluated. Compound 9a induced a significant level of early and late apoptosis (total = 42.19) in the Hela cell line when compared with the control cells (Table 3, Figure 5 and Figure 6).
# [5] = tested on: HCT-116 cancer cell line; assay: MTT cytotoxicity assay, colon HCT-116; format: cell-based; settings: Homo sapiens, mean ± SD of three experiments, read-out: IC50 HCT116
# Procedure: as §3, §4
# [6] = target: T2, CDK9 (Homo sapiens, UniProt P50750); assay: In vitro CDK9 enzyme inhibition assay (BPS Bioscience kit, chemiluminescence); format: biochemical
# T2 construct: purchased BPS Bioscience
# Procedure: as §1
# [7] = tested on: MCF7 cancer cell line; assay: MTT cytotoxicity assay, breast cancer MCF7; format: cell-based; settings: Homo sapiens, mean ± SD of three experiments
# Procedure: as §3, §4
# [8] = MTT cytotoxicity on normal cell line WI-38; format: cell-based; settings: human, WI-38 normal cells, MTT assay, mean ± SD of three experiments, read-out: In Vitro Cytotoxicity on WI-38 (IC50)
# [9] = tested on: HCT-116 cells; assay: Annexin V/PI apoptosis assay, HCT-116; format: cell-based; settings: HCT-116, IC50 concentration, 24 h
# [10] = tested on: MCF7 cells; assay: Annexin V/PI apoptosis assay, MCF7; format: cell-based; settings: MCF7, IC50 concentration, 24 h
# [11] = tested on: MCF7 cells; assay: Cell cycle analysis (PI flow cytometry), MCF7; format: cell-based
# Procedure: as §2
# [12] = tested on: HCT-116 cells; assay: Cell cycle analysis (PI flow cytometry), HCT-116; format: cell-based; settings: HCT-116, compound at its IC50
# Procedure: as §2
# T2 sequence (P50750 whole entry): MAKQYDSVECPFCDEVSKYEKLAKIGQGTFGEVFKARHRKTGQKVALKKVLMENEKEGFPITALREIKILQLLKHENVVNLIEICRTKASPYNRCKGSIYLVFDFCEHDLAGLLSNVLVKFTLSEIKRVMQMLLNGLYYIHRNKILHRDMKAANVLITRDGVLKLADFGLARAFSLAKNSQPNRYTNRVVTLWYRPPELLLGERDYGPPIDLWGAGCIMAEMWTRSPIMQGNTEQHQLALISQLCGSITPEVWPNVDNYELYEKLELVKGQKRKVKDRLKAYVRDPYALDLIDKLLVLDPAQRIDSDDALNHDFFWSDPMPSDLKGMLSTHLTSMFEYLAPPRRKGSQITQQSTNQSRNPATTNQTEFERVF
# T2 sequence (O60563 whole entry partner): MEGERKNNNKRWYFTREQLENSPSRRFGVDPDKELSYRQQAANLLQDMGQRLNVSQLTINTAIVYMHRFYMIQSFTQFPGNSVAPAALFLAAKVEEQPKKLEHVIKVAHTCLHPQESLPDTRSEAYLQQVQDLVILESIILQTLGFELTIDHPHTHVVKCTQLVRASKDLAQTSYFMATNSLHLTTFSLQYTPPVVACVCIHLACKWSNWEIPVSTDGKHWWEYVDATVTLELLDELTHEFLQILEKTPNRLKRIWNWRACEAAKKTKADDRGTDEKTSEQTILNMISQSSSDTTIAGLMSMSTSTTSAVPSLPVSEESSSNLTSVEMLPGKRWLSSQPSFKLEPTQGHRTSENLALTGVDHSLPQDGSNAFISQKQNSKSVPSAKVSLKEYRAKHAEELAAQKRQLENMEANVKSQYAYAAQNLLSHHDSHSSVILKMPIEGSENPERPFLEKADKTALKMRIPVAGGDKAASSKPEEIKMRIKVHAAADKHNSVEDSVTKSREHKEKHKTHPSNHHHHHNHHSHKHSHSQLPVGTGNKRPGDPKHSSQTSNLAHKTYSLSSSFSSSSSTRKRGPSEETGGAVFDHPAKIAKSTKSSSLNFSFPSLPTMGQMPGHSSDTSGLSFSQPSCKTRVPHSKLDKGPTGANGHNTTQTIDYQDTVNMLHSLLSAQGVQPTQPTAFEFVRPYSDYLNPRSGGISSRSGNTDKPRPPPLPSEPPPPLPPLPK
melting point,SMILES,IC50 [3],IC50 [5],IC50 [7],further results
161 to 163 °C,"COc1ccc(-c2nn(-c3ccccc3)c3nccc(-c4ccccc4)c23)cc1 [Compound 9a, 3-(4-Methoxyphenyl)-1,4-diphenyl-1H-pyrazolo[3,4-b]pyridine]",2.59 ± 0.16 µM,15.3 ± 1.46 µM,6.39 ± 0.46 µM,"IC50 [1]: 1.63 ± 0.009 µM; Cell cycle Comment ([2]; compound at its IC50): cell cycle arrest at the S phase; also recorded: cell growth arrest@ S; DNA Content %G2/M ([2]; compound at its IC50, control 14.5): 11.36%; DNA Content %S ([2]; compound at its IC50, control 24.11): 29.54%; DNA Content %G0-G1 ([2]; compound at its IC50, control 61.39): 59.1%; cell accumulation at S phase relative to control ([2]; control 24.11%): 1.23 fold; Apoptosis Late ([4]; control 0.12): 12.82%; Apoptosis Early ([4]; control 0.49): 23.21%; Necrosis ([4]; control 1.72): 6.16%; Apoptosis Total ([4]; total equals early + late + necrosis, control 2.33, % printed in Figure 6 only): 42.19%; IC50 [6]: 0.262 ± 0.013 µM; IC50 [8]: 26.4 ± 3.23 µM"
186 to 188 °C,"COc1ccc(-c2nn(-c3ccccc3)c3nccc(-c4ccc(C)cc4)c23)cc1 [Compound 9b, 3-(4-Methoxyphenyl)-1-phenyl-4-(p-tolyl)-1H-pyrazolo[3,4-b]pyridine]",14 ± 1.25 µM,18 ± 1.16 µM,22.4 ± 3.18 µM,
198 to 200 °C,"COc1ccc(-c2ccnc3c2c(-c2ccc(OC)cc2)nn3-c2ccccc2)cc1 [Compound 9c, 3,4-Bis(4-methoxyphenyl)-1-phenyl-1H-pyrazolo[3,4-b]pyridine]",26.6 ± 3.37 µM,43.2 ± 3.26 µM,59 ± 5.52 µM,
171 to 173 °C,"COc1ccc(-c2nn(-c3ccccc3)c3nccc(-c4ccc(F)cc4)c23)cc1 [Compound 9d, 4-(4-Fluorophenyl)-3-(4-methoxyphenyl)-1-phenyl-1H-pyrazolo[3,4-b]pyridine]",19.6 ± 1.68 µM,17.5 ± 0.98 µM,13 ± 1.33 µM,
210 to 212 °C,"COc1ccc(-c2nn(-c3ccccc3)c3nccc(-c4ccc(Cl)cc4)c23)cc1 [Compound 9e, 4-(4-Chlorophenyl)-3-(4-methoxyphenyl)-1-phenyl-1H-pyrazolo[3,4-b]pyridine]",48.5 ± 4.2 µM,16.6 ± 1.34 µM,20.3 ± 3.21 µM,
217 to 219 °C,"COc1ccc(-c2nn(-c3ccccc3)c3nccc(-c4ccc(Br)cc4)c23)cc1 [Compound 9f, 4-(4-Bromophenyl)-3-(4-methoxyphenyl)-1-phenyl-1H-pyrazolo[3,4-b]pyridine]",20.4 ± 1.74 µM,16.8 ± 0.76 µM,35.6 ± 4.64 µM,
> 300 °C,"COc1ccc(-c2nn(-c3ccccc3)c3nccc(-c4ccc([N+](=O)[O-])cc4)c23)cc1 [Compound 9g, 3-(4-Methoxyphenyl)-4-(4-nitrophenyl)-1-phenyl-1H-pyrazolo[3,4-b]pyridine]",28.3 ± 4.23 µM,40 ± 3.19 µM,26.3 ± 2.85 µM,
165 to 167 °C,"COc1ccc(-c2nn(-c3ccccc3)c3nccc(-c4ccc(OC)c(OC)c4)c23)cc1 [Compound 9h, 4-(3,4-Dimethoxyphenyl)-3-(4-methoxyphenyl)-1-phenyl-1H-pyrazolo[3,4-b]pyridine]",7.92 ± 1.11 µM,9.69 ± 0.56 µM,9.7 ± 1 µM,
229 to 231 °C,"COc1ccc(-c2nn(-c3ccccc3)c3nc(-c4ccccc4)c(C#N)c(-c4ccccc4)c23)cc1 [Compound 14a, 3-(4-Methoxyphenyl)-1,4,6-triphenyl-1H-pyrazolo[3,4-b]pyridine-5-carbonitrile]",23.1 ± 1.63 µM,25.8 ± 2.58 µM,20.7 ± 1.73 µM,
203 to 205 °C,"COc1ccc(-c2nn(-c3ccccc3)c3nc(-c4ccccc4)c(C#N)c(-c4ccc(C)cc4)c23)cc1 [Compound 14b, 3-(4-Methoxyphenyl)-1,6-diphenyl-4-(p-tolyl)-1H-pyrazolo[3,4-b]pyridine-5-carbonitrile]",21 ± 2.18 µM,36.3 ± 1.83 µM,21.4 ± 2.05 µM,
207 to 209 °C,"COc1ccc(-c2nn(-c3ccccc3)c3nc(-c4ccccc4)c(C#N)c(-c4ccc(OC)cc4)c23)cc1 [Compound 14c, 3,4-Bis(4-methoxyphenyl)-1,6-diphenyl-1H-pyrazolo[3,4-b]pyridine-5-carbonitrile]",41.3 ± 2.79 µM,36.7 ± 2.02 µM,39.3 ± 3.74 µM,
258 to 260 °C,"COc1ccc(-c2nn(-c3ccccc3)c3nc(-c4ccccc4)c(C#N)c(-c4ccc(Cl)cc4)c23)cc1 [Compound 14d, 4-(4-Chlorophenyl)-3-(4-methoxyphenyl)-1,6-diphenyl-1H-pyrazolo[3,4-b]pyridine-5-carbonitrile]",21.1 ± 2.03 µM,31.1 ± 3.54 µM,37.2 ± 2.48 µM,
221 to 223 °C,"COc1ccc(-c2nn(-c3ccccc3)c3nc(-c4ccccc4)c(C#N)c(-c4ccc(Br)cc4)c23)cc1 [Compound 14e, 4-(4-Bromophenyl)-3-(4-methoxyphenyl)-1,6-diphenyl-1H-pyrazolo[3,4-b]pyridine-5-carbonitrile]",37.3 ± 3.32 µM,37.8 ± 2.63 µM,34.4 ± 2.59 µM,
230 to 232 °C,"COc1ccc(-c2nn(-c3ccccc3)c3nc(-c4ccccc4)c(C#N)c(-c4ccc(N(C)C)cc4)c23)cc1 [Compound 14f, 4-(4-(Dimethylamino)phenyl)-3-(4-methoxyphenyl)-1,6-diphenyl-1H-pyrazolo[3,4-b]pyridine-5-carbonitrile]",46.1 ± 3.7 µM,40 ± 4.32 µM,19.6 ± 1.26 µM,
295 to 297 °C,"COc1ccc(-c2nn(-c3ccccc3)c3nc(-c4ccccc4)c(C#N)c(-c4ccc(O)cc4)c23)cc1 [Compound 14g, 4-(4-Hydroxyphenyl)-3-(4-methoxyphenyl)-1,6-diphenyl-1H-pyrazolo[3,4-b]pyridine-5-carbonitrile]",12.7 ± 1.53 µM,1.98 ± 0.17 µM,4.66 ± 0.38 µM,"IC50 [1]: 0.46 ± 0.024 µM; Apoptosis Late ([9]; control 0.19): 6.95%; Apoptosis Early ([9]; control 0.63): 16.01%; Necrosis ([9]; control 1.69): 3.75%; Apoptosis Total ([9]; total equals early + late + necrosis, control 2.51): 26.71%; Apoptosis Late ([10]; control 0.27): 7.55%; Apoptosis Early ([10]; control 0.44): 13.07%; Necrosis ([10]; control 0.78): 2.27%; Apoptosis Total ([10]; total equals early + late + necrosis, control 1.49): 22.89%; Cell cycle Comment ([11]; MCF7, compound at its IC50): arresting cell cycle for MCF7 at G2/M phase; also recorded: cell growth arrest@ G2/M; DNA Content %G2/M ([11]; MCF7, compound at its IC50, control 14.86): 24.94%; DNA Content %S ([11]; MCF7, compound at its IC50, control 39.02): 33.81%; DNA Content %G0-G1 ([11]; MCF7, compound at its IC50, control 46.12): 41.25%; DNA accumulation at G2/M phase relative to control ([11]; MCF7, control 14.86%): 1.68 fold; Cell cycle Comment [12]: arresting cell cycle at S phase; also recorded: cell growth arrest@ S; DNA Content %G2/M ([12]; control 17.64): 13.24%; DNA Content %S ([12]; control 26.49): 34.82%; DNA Content %G0-G1 ([12]; control 55.87): 51.94%; IC50 [6]: 0.801 ± 0.041 µM; IC50 [8]: 21.8 ± 2.96 µM"
212 to 214 °C,"COc1ccc(-c2nn(-c3ccccc3)c3nc(-c4ccccc4)c(C#N)c(-c4ccc(OC)c(OC)c4)c23)cc1 [Compound 14h, 4-(3,4-Dimethoxyphenyl)-3-(4-methoxyphenyl)-1,6-diphenyl-1H-pyrazolo[3,4-b]pyridine-5-carbonitrile]",31.7 ± 2.48 µM,3.69 ± 0.11 µM,38.1 ± 2.76 µM,
,"COc1cccc2c1C(=O)c1c(O)c3c(c(O)c1C2=O)C[C@@](O)(C(=O)CO)C[C@@H]3O[C@H]1C[C@H](N)[C@H](O)[C@H](C)O1 [Doxorubicin, reference compound]",2.35 ± 0.08 µM,2.11 ± 0.2 µM,4.57 ± 0.28 µM,IC50 [8]: 15.6 ± 0.37 µM

# — article PMC10490123, “Synthesis and In Vitro Anticancer Activity of Novel 4-Aryl-3-(4-methoxyphenyl)-1-phenyl-1H-pyrazolo[3,4-b]pyridines Arrest Cell Cycle and Induce Cell Apoptosis by Inhibiting CDK2 and/or CDK9” (Molecules, 2023)
